Experiments:
[1] = Renal impairment study: single dose PK of CTP-543 and metabolites C-21714, C-21717; settings: single 12 mg oral dose of CTP-543; normal renal function N = 8; geometric mean (geometric CV %)
Source text: The study enrolled 8 subjects in the normal renal function cohort, and 8 subjects in the moderate impaired renal function cohort.
The primary endpoint of this study was single dose PK exposure parameters: Cmax, AUC(0-Tlast), and AUC(0-∞).
The secondary endpoints of this study were: • Adverse Events, clinical laboratory findings, physical examinations, ECGs, and vital signs. • Other PK parameters, such as, but not limited to: Tmax, λz, t1/2, CL/F, and Vz/F.
(§1) All subjects had samples collected for PK.
PK parameters were determined using non-compartmental analysis (NCA) methods based on individual plasma concentration-time data for all PK analytes.

plasma protein = experiment: Renal impairment study: plasma protein binding of CTP-543; format: in vitro ADME, human; settings: 2 hours post-dose; moderate renal impairment vs matched controls with normal renal function
Source text: as §1

[2] = tested on: adult subjects with moderate to severe AA; experiment: Phase III trial: Hair Satisfaction Patient Reported Outcome (SPRO); format: in vivo, human; settings: for percentage of subjects with a ≥2 point change from baseline on SPRO: 12 mg BID
Source text: The SPRO is a single-item questionnaire answered by the subject and designed to measure how satisfied Alopecia Areata subjects are with their hair at the time of the assessment. Subjects answer questions on a scale of 1 to 5, representing “Very satisfied” to “Very dissatisfied.” Satisfaction categories 1-5 of the scale were defined as follows: 1=“Very Satisfied”; 2=“Satisfied”; 3=“Neither Satisfied nor Dissatisfied”; 4=Dissatisfied”; and 5=“Very Dissatisfied”.
The results of the SPRO was analyzed in three different ways: 1) the percentage of responders, 2) the change from baseline, and 3) the percentage of subjects achieving a ≥2.0 point change from baseline.
A Phase III trial was conducted to assess the efficacy and safety of CTP-543 in adult subjects with moderate to severe AA. Approximately 440 adult male and female subjects 18 to 65 years of age, inclusive, with moderate to severe AA participated in the study. Subjects with definitive diagnosis of AA, and at least 50% hair loss, as defined by a SALT score ≥50, who met all of the inclusion criteria and none of the exclusion criteria participated in the study.
The Screening Period lasted up to 28 days prior to initiation of study drug. […] Randomization was stratified by scalp hair loss into 1 of the following 2 categories: 1) partial scalp hair loss (SALT ≥50 and <95), 2) complete or near complete scalp hair loss (SALT ≥95).
The key secondary efficacy endpoints were the percentage of responders (defined as “satisfied” or “very satisfied”) on the Hair Satisfaction Patient Reported Outcome (SPRO) scale at Week 24, 20, 16, 12, and 8.
The Hair Satisfaction Patient Reported Outcome (SPRO) was also determined based on the 5-point SPRO scale from baseline through Week 24 among primary endpoint responders. The subjects that received a SALT score ≤20 at Week 24 in the THRIVE-AA1 and THRIVE-AA2 trials were included in the analysis. […]
The SPRO was evaluated in 3 different ways: the percentage of responders, the change from baseline, and the percentage of subjects achieving a ≥2.0 point change from baseline.

subjects with AA [3] = experiment: Open-label extension (OLE) studies: SALT score; format: in vivo, human; settings: 12 mg BID in OLE, placebo in the earlier studies, 52 weeks
Source text: Subjects completing 24 weeks of treatment with […]
(§2) The qualifying clinical trials including the following: 1. NCT03137381; 2. NCT03811912; 3. NCT03941548; 4. NCT04784533; 5. NCT04518995; and 6. NCT04797650 (all available a at https://clinicaltrials.gov).
The OLE Efficacy Population is defined as all subjects who received at least one dose of deuruxolitinib and had at least one post-baseline SALT assessment in OLE. The data analyses include subjects' data from the qualifying trial. Missing SALT scores were not imputed. The number of subjects decreases over time due to missing data, patient discontinuations, or subjects not yet at the later timepoints. Any SALT data after a qualifying dose change in the OLE was censored for all figures included here, except those showing the overall treatment sequence. A “qualifying dose change” referred to herein can be placebo in any qualifying trial to any dose of deuruxolitinib in the OLE (includes subjects who switched doses), or any dose of deuruxolitinib in a qualifying trial to any dose of deuruxolitinib in the OLE. Various analyses using SALT scores were conducted to best estimate the overall long-term effect of deuruxolitinib considering the issues with dose changes and decreasing patient numbers over time. “Any Dose” analysis tracks all active subjects over time pooled across the two doses. […]

subjects with AA [4] = experiment: Open-label extension (OLE) studies: safety; format: in vivo, human
Source text: as §2

Structure (SMILES): [2H]C1([2H])C([C@@H](CC#N)n2cc(-c3ncnc4[nH]ccc34)cn2)C([2H])([2H])C([2H])([2H])C1([2H])[2H] [CTP-543, (R)-3-(4-(7H-pyrrolo[2,3-d]pyrimidin-4-yl)-1H-pyrazol-1-yl)-3-(cyclopentyl-2,2,3,3,4,4,5,5-d8) propanenitrile]
- Clast [1]: 0.898 (116.3) ng/mL
- plasma protein binding, difference between cohorts (plasma protein): no meaningful differences
- SPRO Responders: Yes ([2]; 12 mg BID (N = 127), Week 24, non-missing data): 62 (51.7) n (%)
- percentage of subjects with a ≥2 point change from baseline on SPRO ([2]; week 16, non-missing data): 57.4%
- percentage of subjects with a ≥2 point change from baseline on SPRO ([2]; week 24, non-missing data): 61.7%
- mean SALT score (subjects with AA [3]): 43.0
- number of serious treatment-related TEAEs (subjects with AA [4]; OLE studies): remains low
- tolerability (subjects with AA [4]; OLE studies): generally well tolerated
- subjects with related thrombotic events (subjects with AA [4]; all at the 12 mg BID dose, following ≥52 weeks of dosing): four
- treatment-emergent adverse event findings (subjects with AA [4]; integrated analyses): consistent with the safety profiles observed for other JAK inhibitors

— patent US12364699B2, “Method of treating hair loss disorders” (Sun Pharmaceutical Industries, Inc., priority 2023, dated 2025)
